Measurements as given in US20150141381A1, “TETRACYCLINE COMPOUNDS HAVING TARGET THERAPEUTIC ACTIVITIES” (Paratek Pharmaceuticals, Inc., priority 2001, published 2015).
Where two headings read alike, the source gives them in different places.

Legend:
[1] = system: S. aureus RN450; experiment: In Vitro Anti-Bacterial Activity Assay (MIC), gram positive; assay type: cell-based; conditions: for MIC: Staphylococcus aureus, RN450, 18 h
[2] = system: E. coli mL308 225; experiment: In Vitro Anti-Bacterial Activity Assay (MIC), gram negative; assay type: cell-based; conditions: for MIC: Escherichia coli, ML308225, 18 h
[3] = MIC class, Table 3 (Continued), read-out: Gram+ activity
[4] = MIC class, Table 3 (Continued), read-out: Gram− activity
[5] = gram positive bacteria, read-out: Antibiotic Activity Gram + (MIC)
[6] = gram negative bacteria, read-out: Antibiotic Activity Gram − (MIC)
[7] = MIC class, Table 3, read-out: Antibiotic Activity Gram +
[8] = MIC class, Table 3, read-out: Antibiotic Activity Gram −
[9] = read-out: Antibiotic Activity Gram +
[10] = read-out: Antibiotic Activity Gram −

Row | SMILES | MIC [1, 5] [µg/mL] | MIC [2, 6] [µg/mL] | MIC [1, 7] [µg/mL] | MIC [2, 8] [µg/mL] | also measured
1 | CN(C)c1cc(NC(=O)Nc2ccccc2)c(O)c2c1C[C@H]1C[C@H]3C(N(C)C)C(O)=C(C(N)=O)C(=O)[C@@]3(O)C(O)=C1C2=O (stereo partly drawn) |  |  |  |  | MIC [1, 3]: < 4 µg/mL; MIC [2, 4]: < 4 µg/mL
2 | C#Cc1cc(N(C)C)c2c(c1O)C(=O)C1=C(O)[C@]3(O)C(=O)C(C(N)=O)=C(O)C(N(C)C)[C@@H]3C[C@@H]1C2 (stereo partly drawn) |  |  |  |  | MIC [1, 3]: < 4 µg/mL; MIC [2, 4]: > 4 µg/mL
3 | CN(C)[C@@H]1C(O)=C(C(N)=O)C(=O)[C@@]2(O)C(O)=C3C(=O)c4c(O)ccc(-c5ccc(/C=N/CC#N)cc5)c4C[C@H]3C[C@@H]12 | < 4 | > 4 |  |  | 
4 | CN(C)/C=N/c1ccc(O)c2c1C[C@H]1C[C@H]3[C@@H](N(C)C)C(O)=C(C(N)=O)C(=O)[C@@]3(O)C(O)=C1C2=O [QC] |  |  | < 4 | < 4 | 
5 | CC1CN(Cc2cc(N(C)C)c3c(c2O)C(=O)C2=C(O)[C@]4(O)C(=O)C(C(N)=O)=C(O)[C@@H](N(C)C)[C@@H]4C[C@@H]2C3)CC(C)O1 (stereo partly drawn) | < 4 | < 4 |  |  | 
6 | CN(C)c1cc(C#CCNS(C)(=O)=O)c(O)c2c1C[C@H]1C[C@H]3[C@H](N(C)C)C(O)=C(C(N)=O)C(=O)[C@@]3(O)C(O)=C1C2=O | > 4 | > 4 |  |  | 
7 | CN(C)[C@@H]1C(O)=C(C(N)=O)C(=O)[C@@]2(O)C(O)=C3C(=O)c4c(ccc(NC(=O)c5ccno5)c4O)C[C@H]3C[C@@H]12 [IJ] |  |  | < 4 | > 4 | 
8 | CN(C)c1cc(CNC2CCCC2)c(O)c2c1C[C@H]1C[C@H]3[C@H](N(C)C)C(O)=C(C(N)=O)C(=O)[C@@]3(O)C(O)=C1C2=O | < 4 | > 4 |  |  | 
9 | CN(C)[C@@H]1C(O)=C(C(N)=O)C(=O)[C@@]2(O)C(O)=C3C(=O)c4c(O)ccc(-c5cncc(CO)c5)c4C[C@H]3C[C@@H]12 | < 4 | > 4 |  |  | 
10 | CO/N=C/c1cc(-c2ccc(O)c3c2C[C@H]2C[C@H]4[C@H](N(C)C)C(O)=C(C(N)=O)C(=O)[C@@]4(O)C(O)=C2C3=O)ccc1OC [HV] |  |  | < 4 | > 4 | 
11 | C[C@H]1c2ccc(CNCC(C)(C)C)c(O)c2C(=O)C2=C(O)[C@]3(O)C(=O)C(C(N)=O)=C(O)[C@@H](N(C)C)[C@@H]3[C@@H](O)[C@@H]21 [drawing 3661] | > 4 | > 4 |  |  | 
12 | CC(C)NCc1ccc(O)c2c1C[C@H]1C[C@H]3C(N(C)C)C(O)=C(C(N)=O)C(=O)[C@@]3(O)C(O)=C1C2=O (stereo partly drawn) [KK] |  |  | < 4 | < 4 | 
13 | CC(C)CNC(=N)Nc1cc(N(C)C)c2c(c1O)C(=O)C1=C(O)[C@]3(O)C(=O)C(C(N)=O)=C(O)[C@@H](N(C)C)[C@@H]3C[C@@H]1C2 [FB] |  |  | > 4 | > 4 | 
14 | Cc1ccc(OC(=O)Nc2ccc(O)c3c2C[C@H]2C[C@H]4[C@H](N(C)C)C(O)=C(C(N)=O)C(=O)[C@@]4(O)C(O)=C2C3=O)cc1 [AV] |  |  |  |  | MIC [1, 9]: < 4 µg/mL; MIC [2, 10]: < 4 µg/mL
15 | CN(C)[C@@H]1C(O)=C(C(N)=O)C(=O)[C@@]2(O)C(O)=C3C(=O)c4c(O)ccc(-c5ccc(CNC(C)(C)C)o5)c4C[C@H]3C[C@@H]12 [MD] |  |  | < 4 | < 4 | 
16 | CN(C)[C@@H]1C(O)=C(C(N)=O)C(=O)[C@@]2(O)C(O)=C3C(=O)c4c(O)ccc(-c5ccc(NC(=O)NCCCCl)cc5)c4C[C@H]3C[C@@H]12 | < 4 | > 4 |  |  | 
17 | C[C@H]1c2ccc(-c3ccc(C=O)c4ccccc34)c(O)c2C(=O)C2=C(O)[C@]3(O)C(=O)C(C(N)=O)=C(O)[C@@H](N(C)C)[C@@H]3[C@@H](O)[C@@H]21 | < 4 | < 4 |  |  | 
18 | CN(C)c1cc(CNCc2ccc(F)cc2)c(O)c2c1C[C@H]1C[C@H]3[C@H](N(C)C)C(O)=C(C(N)=O)C(=O)[C@@]3(O)C(O)=C1C2=O | < 4 | < 4 |  |  | 
19 | CCOC(=O)c1cccc(-c2ccc(O)c3c2C[C@H]2C[C@H]4[C@H](N(C)C)C(O)=C(C(N)=O)C(=O)[C@@]4(O)C(O)=C2C3=O)c1 |  |  |  |  | MIC [1, 3]: < 4 µg/mL; MIC [2, 4]: < 4 µg/mL
20 | CN(C)[C@H]1C(O)=C(C(N)=O)C(=O)[C@@]2(O)C(O)=C3C(=O)c4c(O)ccc(-c5cccc(N)c5)c4C[C@H]3C[C@@H]12 [AM] |  |  | < 4 | < 4 | 

Row | SMILES | MIC [1, 5] [µg/mL] | MIC [2, 6] [µg/mL] | MIC [1, 7] [µg/mL] | MIC [2, 8] [µg/mL] | also measured
21 | CN(C)c1cc(CNCc2ccccc2)c(O)c2c1C[C@H]1C[C@H]3[C@H](N(C)C)C(O)=C(C(N)=O)C(=O)[C@@]3(O)C(O)=C1C2=O [MW] |  |  | < 4 | < 4 | 
22 | CN(C)[C@@H]1C(O)=C(C(N)=O)C(=O)[C@@]2(O)C(O)=C3C(=O)c4c(O)ccc(-c5ccc(-n6cccc6)nc5)c4C[C@H]3C[C@@H]12 | < 4 | < 4 |  |  | 
23 | CN(C)c1ccc(OCc2ccccc2)c2c1C[C@H]1C[C@H]3[C@H](N(C)C)C(OCc4ccccc4)=C(C(N)=O)C(=O)[C@@]3(O)C(O)=C1C2=O [ON] |  |  | > 4 | > 4 | 
24 | CN(C)c1cc(CNCC2CCOCC2)c(O)c2c1C[C@H]1C[C@H]3[C@H](N(C)C)C(O)=C(C(N)=O)C(=O)[C@@]3(O)C(O)=C1C2=O | < 4 | > 4 |  |  | 
25 | CC(C)CNCc1cc(N(C)C)c2c(c1O)C(=O)C1=C(O)[C@]3(O)C(=O)C(C(N)=O)=C(O)[C@@H](N(C)C)[C@@H]3C[C@@H]1C2 [drawing 3497] |  |  |  |  | Antibiotic Activity Gram + (MIC) ([1]; gram positive bacteria): ** (compounds with MIC less than or equal to 4 μg/ml are indicated with **); Antibiotic Activity Gram − (MIC) ([2]; gram negative bacteria): * (compounds with an MIC of greater than 4 μg/ml are indicated with *)
26 | CC(CF)NCc1ccc(O)c2c1C[C@H]1C[C@H]3[C@H](N(C)C)C(O)=C(C(N)=O)C(=O)[C@@]3(O)C(O)=C1C2=O (stereo partly drawn) | < 4 |  |  |  | MIC ([2]; read-out: Antibiotic Activity Gram − (MIC)): > 4 µg/mL
27 | CN(C)c1cc(CNCC(=O)C(C)(C)C)c(O)c2c1C[C@H]1C[C@H]3[C@H](N(C)C)C(O)=C(C(N)=O)C(=O)[C@@]3(O)C(O)=C1C2=O | < 4 | > 4 |  |  | 
28 | CC(=O)Nc1ccc(C#Cc2ccc(O)c3c2C[C@H]2C[C@H]4[C@H](N(C)C)C(O)=C(C(N)=O)C(=O)[C@@]4(O)C(O)=C2C3=O)cc1 [CO] |  |  | < 4 | > 4 | 
29 | CN(C)[C@@H]1C(O)=C(C(N)=O)C(=O)[C@@]2(O)C(O)=C3C(=O)c4c(O)ccc(C(=O)C(=O)N5CCOCC5)c4C[C@H]3C[C@@H]12 | < 4 | > 4 |  |  | 
30 | CN(C)c1cc(NCc2ccccc2C[C@H]2O[C@@H](CO)[C@@H](O)[C@@H](O)[C@H]2O)c(O)c2c1C[C@H]1C[C@H]3[C@H](N(C)C)C(O)=C(C(N)=O)C(=O)[C@@]3(O)C(O)=C1C2=O | > 4 | > 4 |  |  | 
31 | CN(C)[C@@H]1C(O)=C(C(N)=O)C(=O)[C@@]2(O)C(O)=C3C(=O)c4c(O)ccc(S(=O)(=O)O)c4C[C@H]3C[C@@H]12 | > 4 | > 4 |  |  | 
32 | CN(C)[C@@H]1C(O)=C(C(N)=O)C(=O)[C@@]2(O)C(O)=C3C(=O)c4c(O)c(CNCC(C)(C)C)cc(-c5ccccn5)c4C[C@H]3C[C@@H]12 | < 4 | > 4 |  |  | 
33 | CN(C)[C@@H]1C(O)=C(C(N)=O)C(=O)[C@@]2(O)C(O)=C3C(=O)c4c(O)ccc(C#CCc5ccccc5)c4C[C@H]3C[C@@H]12 |  |  |  |  | MIC [1, 3]: < 4 µg/mL; MIC [2, 4]: < 4 µg/mL
34 | COCC(=O)Nc1ccc(-c2ccc(O)c3c2C[C@H]2C[C@H]4[C@H](N(C)C)C(O)=C(C(N)=O)C(=O)[C@@]4(O)C(O)=C2C3=O)cc1 | < 4 | < 4 |  |  | 
35 | CN(C)[C@@H]1C(O)=C(C(N)=O)C(=O)[C@@]2(O)C(O)=C3C(=O)c4c(O)ccc(C#CCCCC#N)c4C[C@H]3C[C@@H]12 [BB] |  |  | < 4 | < 4 | 
36 | CN(C)c1cc(NC(=O)Oc2ccc(Cl)cc2)c(O)c2c1C[C@H]1C[C@H]3[C@H](N(C)C)C(O)=C(C(N)=O)C(=O)[C@@]3(O)C(O)=C1C2=O [DP] |  |  |  |  | MIC [1, 9]: > 4 µg/mL; MIC [2, 10]: > 4 µg/mL
37 | CN(C)c1ccc(O)c2c1C[C@H]1C[C@H]3[C@H](N(C)C)C(O)=C(C(N)=O)C(=O)[C@@]3(O)C(O)=C1C2=O [B] |  |  | < 4 | < 4 | 
38 | CN(C)[C@@H]1C(O)=C(C(N)=O)C(=O)[C@@]2(O)C(O)=C3C(=O)c4c(O)ccc(-c5ccc(NC(=O)OC(C)(C)C)cc5)c4C[C@H]3C[C@@H]12 | < 4 | < 4 |  |  | 
39 | COc1ccc(CNC(C)C)cc1-c1ccc(O)c2c1C[C@H]1C[C@H]3[C@H](N(C)C)C(O)=C(C(N)=O)C(=O)[C@@]3(O)C(O)=C1C2=O [LR] |  |  | < 4 | < 4 | 
